Consider one molecule from patent US7323447B2, “Hepatitis C virus inhibitors” (Bristol-Myers Squibb Company, priority 2005, dated 2008).

Broadly, the IC50 is the concentration that inhibits the measured activity by half. As usually defined, the EC50 is the concentration at which the effect is half-maximal.

The target of assay [1] is T1, human pancreatic chymotrypsin (Homo sapiens, UniProt P17538).
T1 construct: purchased Sigma or EMDbiosciences
The assay can be described thus: Specificity assay, chymotrypsin. Format: biochemical. Particulars: read-out: Chymotrypsin activity in the specificity assays (IC50). Here is the method: (§1) The specificities of compounds of the present disclosure were determined against a variety of serine proteases: human neutrophil elastase (HNE), porcine pancreatic elastase (PPE) and human pancreatic chymotrypsin and one cysteine protease: human liver cathepsin B. In all cases, a 96-well plate format protocol using colorimetric p-nitroaniline (pNA) substrate or fluorometric Amino-Methyl-Coumarin (AMC) substrate, specific for each enzyme was used as described previously (PCT Patent Application No. WO 00/09543) with some modifications. All enzymes were purchased from Sigma or EMDbiosciences while the substrates were from Bachem.
(§2) Each pNA assay included a 2 hours enzyme-inhibitor pre-incubation at room temperature followed by addition of substrate and hydrolysis to ˜15% conversion as measured on a Spectramax Pro microplate reader. The cathepsin B assay was initiated by adding substrate to a 10 min enzyme-inhibitor pre-incubation at room temperature, and the assay plate measured immediately using the Cytofluor Series 4000. Compound concentrations varied from 100 to 0.4 μM depending on their potency. […]
(§3) The percentage of inhibition was calculated using the formula: [1−((UVinh−UVblank)/(UVctl−UVblank))]×100 […]

In assay [2] the target is T2, human liver cathepsin B (Homo sapiens, UniProt P07858).
T2 construct: purchased Sigma or EMDbiosciences; host or cells: human liver
The assay can be described thus: Specificity assay, cathepsin B. The assay is classed as biochemical. Particulars: read-out: Cathepsin B activity in the specificity assays (IC50). Here is the method: as §1, §2, §3

The test system of assay [3] is HCV replicon in HUH-7 cells. The assay can be described thus: HCV replicon FRET assay. Format: cell-based, Hepatitis C virus (strain 1b). Particulars: Hepatitis C virus. A digest of the protocol:
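HUH-7 cells carrying a genotype 1b subgenomic neo replicon (NS3–NS5B) treated 4 days at 37 °C with compound in 0.5% DMSO final. CC50 from alamarBlue fluorescence after 4 h; cells then lysed with FRET protease substrate at 10 μM final and read kinetically at 340/490 nm to give EC50.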
A general note: Replicon systems follow genome replication, usually without infectious particles.

Assay [4] deals with T3, human neutrophil elastase (HNE) (Homo sapiens, UniProt P08246).
T3 construct: purchased Sigma or EMDbiosciences
T3 sequence (P08246 30-267): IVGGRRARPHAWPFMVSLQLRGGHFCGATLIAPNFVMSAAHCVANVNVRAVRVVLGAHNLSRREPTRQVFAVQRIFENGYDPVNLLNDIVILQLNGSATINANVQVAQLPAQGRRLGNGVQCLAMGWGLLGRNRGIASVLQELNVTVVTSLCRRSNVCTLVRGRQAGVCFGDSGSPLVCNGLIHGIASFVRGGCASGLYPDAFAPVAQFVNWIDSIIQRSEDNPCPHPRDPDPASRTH
As to the kind of experiment: Specificity assay, human neutrophil elastase. Format: biochemical. Particulars: read-out: HLE activity in the specificity assays (IC50). Here is the method:
as §1, §2, §3

Read-outs that look alike come from different tables or passages of the source.

T1 sequence (P17538 19-263): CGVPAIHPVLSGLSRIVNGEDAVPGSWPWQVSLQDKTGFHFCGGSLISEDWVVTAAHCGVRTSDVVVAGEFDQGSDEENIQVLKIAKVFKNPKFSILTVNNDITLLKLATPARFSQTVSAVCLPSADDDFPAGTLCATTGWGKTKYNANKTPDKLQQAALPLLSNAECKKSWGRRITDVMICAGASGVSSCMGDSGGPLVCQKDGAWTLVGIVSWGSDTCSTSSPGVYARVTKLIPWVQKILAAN

Regarding `C=C[C@@H]1C[C@]1(NC(=O)[C@@H]1C[C@@H](OC(=O)N2Cc3cccc(F)c3C2)CN1C(=O)[C@@H](OC(=O)NC(C)(C)C)C(C)(C)C)C(=O)NS(=O)(=O)C1CC1` [Example 56Compound 56], the IC50 in assay [1], in assay [2] and in assay [4] was above 100 µM each time. Besides, the EC50 is 0.742 µM in assay [3] (Huh-7, 96 h, replicon FRET assay, HUH-7, 4 days, read-out: EC50 value in the replicon FRET assay) and 0.5 to 5 µM in assay [3] (Huh-7, read-out: EC50 Range, HCV replicon cell assay, Table 1).
